The source of these data is paper PMC8780964, “Evaluation of the Pharmacokinetics of the Pancreastatin Inhibitor PSTi8 Peptide in Rats: Integration of In Vitro and In Vivo Findings” (Molecules, 2022).

The nature of this data set: Microsomal metabolic stability study. Format: in vitro ADME, SD rats. As to conditions: 25 µM, RLM. As to the method:
RLM was prepared from SD rats from our lab, as previously reported. In vitro metabolic stability of PSTi8 was determined using RLM. The reaction milieu was prepared by adding 50 mM Tris buffer (pH 7.4), 40 mM MgCl2 pre-incubated at 37 °C along with RLM (0.5 mg/mL) and spiked at a concentration (5 µM) of PSTi8. The reaction was started with NADPH (1 mM) and without NADPH (negative control using Tris buffer). A total of 100 µL samples were collected at 0, 5, 15, 30, 45 and 60 min, and the reaction was quenched with liquid nitrogen. Samples were processed with the SPE procedure and analyzed using the LC-MS/MS method. Negative control was used to assess the peptide stability in the reaction milieu and the positive control (Testosterone, 25 µM) was incubated to obtain the microsomal activity.

Consider `C[C@]12CC[C@H]3[C@@H](CCC4=CC(=O)CC[C@@]43C)[C@@H]1CC[C@@H]2O` [testosterone, reference compound], for which the “half-life of positive control” value is “within the acceptable in-house limits”.
